Laboratory results reported in patent US11267826B2, “Penicillin-binding protein inhibitors” (priority 2017, dated 2022).

Legend:
E. coli K12 PBP1b = biological target: T1, E. coli K12 PBP1b (Escherichia coli, UniProt P02919); assay: Competition binding assay using Bodipy-FL boronic acid probe (Example 125); conditions: Bodipy-FL boronic acid probe (Example 125) 30 μM, 10 minutes pre-incubation, 10 minutes reaction
T1 construct: endogenous in cells; host or cells: Escherichia coli K12, membrane protein fraction
Protocol: Penicillin binding proteins were isolated from Escherichia coli K12 by growth of Escherichia coli K12 from a single colony in 4 L of Luria-Bertani (LB) broth at 35° C. and 250 rpm to an OD600 nm of 0.5. The cells were harvested by centrifugation at 7,000×g for 10 min. at 4° C. Cells were resuspended and washed in 50 mM potassium phosphate pH 7.5. The cells were re-suspended in sonication buffer [50 mM Tris-HCl pH 7.5, 1 mM MgCl2, 1 mM beta-mercaptoethanol, and 5 μg/mL DNAse I] and sonicated by 4 passes of 30 seconds at 45 W on ice. The sample was clarified by centrifugation at 3,000×g to remove cell debris and unbroken cells and supernatant containing the membrane proteins was retained. The membrane proteins including the PBPs were further purified from soluble constituents by an ultracentrifugation step at 100,000×g for 30 min. at 4° C. The membrane proteins are washed twice with 10 mM sodium phosphate pH 7, resuspended in a volume of 5 mL, quantitated by BCA assay, adjusted to […] and frozen at −80° C. until use.
The adapted Bocillin FL competition binding method described herein incorporates a 15 min. pre-incubation of test compound with isolated PBPs to attempt to balance the difference in mechanism of inhibition between beta-lactams (largely irreversible covalent bond to active site Serine) and the boron-containing PBP inhibitor test compounds (reversible covalent bond to active site Serine). Briefly, 50 μL reactions consisted of 100 μg's of total membrane protein extracts containing PBPs incubated with a dilution series of test compound ranging from 0.005 μg/mL to 2,480 μg/mL in 10 mM sodium phosphate pH7 containing 350 mM NaCl. Thirty minute reactions at 35° C. were initiated by addition of […] Bocillin FL, quenched by addition of SDS-PAGE loading buffer containing sodium dodecyl sulfate (SDS) and heated for 15 minutes at 95° C. to denature proteins in preparation for SDS-polyacrylamide gel electrophoresis. The Bocillin FL labeled PBPs are then separated by SDS-PAGE in Novex NuPage 10% Bis-Tris pre-cast gels (Invitrogen). The SDS-PAGE gel, post-electrophoresis, is then washed in water to remove excess SDS for 10 minutes at room temperature and placed on the scanning bed of a GE Healthcare/Amersham Biosciences Storm 860 fluorescence scanner. The excitation wavelength is in the blue spectrum at 450 nm and the emission at 520 nm is captured by the instrument. Effective PBP inhibitors are detected by a reduction in Bocillin FL labeling of the particular PBP over the dose range of test compound in a dose-responsive manner. High molecular weight PBP 1a/1b are not resolved by these gels, thus we report HMW PBP binding results in μg/mL for PBPs 1a/1b combined as well as for PBP2 and PBP3.
To determine the ability of boronic acid-based test PBP inhibitors to bind Penicillin Binding Proteins (PBPs), a competition binding assay using a Bodipy-FL-labeled boronic acid PBP inhibitor (Example 125) was adapted from the classical method used to assess PBP potency of beta-lactams using Bocillin-FL (fluorescently-labeled penicillin V). The method is identical to that described in Example I for the Bocillin-FL competition binding assay with the following exceptions, the Bodipy-FL boronic acid probe (Example 125) is used at a final concentration of 30 μM, pre-incubation time of test compound with PBP enzymes is 10 minutes and reaction time is set for 10 minutes and reactions are prepared for SDS-PAGE analysis by simply adding SDS-containing loading buffer. Representative results are shown in Table 5, where A represents a potency of >1000 μg/mL, B represents a potency between 64 and 1000 μg/mL inclusive, and C represents a potency of <64 μg/mL. NT=Not Tested.

E. coli K12 PBP1a/b = assay: Bocillin FL competition binding assay, PBP1a/1b combined; set-up: species or system Escherichia coli K12; conditions: 15 min pre-incubation, PBP 1a/1b combined
Summary of the method: (§1)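 E. coli K12 membrane extracts (100 µg protein) pre-incubated 15 min with compound (0.005–2,480 µg/mL) in pH 7 phosphate/350 mM NaCl, then labelled with Bocillin FL 30 min at 35°C; SDS-PAGE fluorescence (ex 450/em 520 nm), μg/mL reported. PBP1a/1b unresolved, reported combined.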

E. coli PBP3 = biological target: T2, E. coli PBP3 (Escherichia coli, UniProt P0AD68); assay: Bocillin FL competition binding assay, PBP3; set-up: species or system Escherichia coli K12; conditions: 15 min pre-incubation
T2 construct: 100 μg's of total membrane protein extracts containing PBPs; endogenous in cells; host or cells: Escherichia coli K12, membrane protein fraction
Summary of the method: as §1

E. coli PBP2 = biological target: T3, E. coli PBP2 (Escherichia coli, UniProt P0AD65); assay: Bocillin FL competition binding assay, PBP2; set-up: species or system Escherichia coli K12; conditions: 15 min pre-incubation
T3 construct: 100 μg's of total membrane protein extracts containing PBPs; endogenous in cells; host or cells: Escherichia coli K12, membrane protein fraction
Summary of the method: as §1

S. aureus ATCC 29213 = assay: Broth microdilution MIC assay, S. aureus; type: cell-based; conditions: Staphylococcus aureus, ATCC29213; broth microdilution, 16-20 hours at 37° C.; read-out: S. aureus 29213 MIC
Summary of the method: (§2)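 CLSI broth microdilution in cation-supplemented Mueller-Hinton broth; 2-fold serial compound dilutions inoculated at 5×10^5 CFU/mL from 3-5 h log-phase cultures. Plates incubated 16-20 hours at 37° C. MIC read visually as lowest concentration with no bacterial growth.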

[1] = test system: hyper-permeable E. coli 901C; assay: Broth microdilution MIC assay, hyper-permeable E. coli; type: cell-based; conditions: Escherichia coli, read-out: E. coli 901C MIC
Summary of the method: as §2

T1 sequence (P02919 whole entry): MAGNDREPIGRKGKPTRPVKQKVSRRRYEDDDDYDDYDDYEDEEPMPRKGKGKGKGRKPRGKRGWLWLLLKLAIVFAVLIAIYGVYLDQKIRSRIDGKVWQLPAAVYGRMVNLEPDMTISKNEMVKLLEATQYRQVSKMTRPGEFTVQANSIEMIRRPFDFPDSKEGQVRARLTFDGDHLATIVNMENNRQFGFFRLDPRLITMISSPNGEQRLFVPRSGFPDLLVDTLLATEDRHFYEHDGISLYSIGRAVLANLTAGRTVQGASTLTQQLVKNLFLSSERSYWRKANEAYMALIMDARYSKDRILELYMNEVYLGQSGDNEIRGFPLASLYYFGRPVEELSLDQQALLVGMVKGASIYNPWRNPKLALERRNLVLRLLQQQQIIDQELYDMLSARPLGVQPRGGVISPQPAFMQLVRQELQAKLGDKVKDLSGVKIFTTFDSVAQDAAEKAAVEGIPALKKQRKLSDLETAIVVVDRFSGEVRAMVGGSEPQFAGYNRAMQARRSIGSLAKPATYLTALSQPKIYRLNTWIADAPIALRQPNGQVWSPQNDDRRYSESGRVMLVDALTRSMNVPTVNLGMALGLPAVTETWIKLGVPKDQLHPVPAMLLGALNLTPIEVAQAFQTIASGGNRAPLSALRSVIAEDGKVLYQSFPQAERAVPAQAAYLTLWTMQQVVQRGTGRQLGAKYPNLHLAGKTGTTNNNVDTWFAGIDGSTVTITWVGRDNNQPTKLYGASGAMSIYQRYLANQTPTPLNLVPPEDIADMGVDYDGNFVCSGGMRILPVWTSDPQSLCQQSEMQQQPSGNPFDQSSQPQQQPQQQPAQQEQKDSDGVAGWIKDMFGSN
T3 sequence (P0AD65 whole entry): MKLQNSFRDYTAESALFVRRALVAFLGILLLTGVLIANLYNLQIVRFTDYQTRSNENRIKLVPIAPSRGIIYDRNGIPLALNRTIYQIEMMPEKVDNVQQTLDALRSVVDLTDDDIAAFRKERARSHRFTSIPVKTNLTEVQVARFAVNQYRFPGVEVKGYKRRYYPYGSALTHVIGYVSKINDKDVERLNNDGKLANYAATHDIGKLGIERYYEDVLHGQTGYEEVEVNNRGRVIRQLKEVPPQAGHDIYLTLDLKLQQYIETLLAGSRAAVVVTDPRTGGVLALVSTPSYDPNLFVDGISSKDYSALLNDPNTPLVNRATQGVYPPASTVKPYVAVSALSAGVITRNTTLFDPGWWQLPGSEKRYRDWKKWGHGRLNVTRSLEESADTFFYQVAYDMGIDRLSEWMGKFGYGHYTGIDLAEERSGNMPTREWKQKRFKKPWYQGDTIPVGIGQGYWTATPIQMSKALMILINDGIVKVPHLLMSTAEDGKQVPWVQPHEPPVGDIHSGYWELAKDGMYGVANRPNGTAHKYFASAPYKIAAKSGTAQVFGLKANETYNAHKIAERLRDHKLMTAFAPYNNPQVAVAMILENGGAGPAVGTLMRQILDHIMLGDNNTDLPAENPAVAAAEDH
T2 sequence (P0AD68 1-577): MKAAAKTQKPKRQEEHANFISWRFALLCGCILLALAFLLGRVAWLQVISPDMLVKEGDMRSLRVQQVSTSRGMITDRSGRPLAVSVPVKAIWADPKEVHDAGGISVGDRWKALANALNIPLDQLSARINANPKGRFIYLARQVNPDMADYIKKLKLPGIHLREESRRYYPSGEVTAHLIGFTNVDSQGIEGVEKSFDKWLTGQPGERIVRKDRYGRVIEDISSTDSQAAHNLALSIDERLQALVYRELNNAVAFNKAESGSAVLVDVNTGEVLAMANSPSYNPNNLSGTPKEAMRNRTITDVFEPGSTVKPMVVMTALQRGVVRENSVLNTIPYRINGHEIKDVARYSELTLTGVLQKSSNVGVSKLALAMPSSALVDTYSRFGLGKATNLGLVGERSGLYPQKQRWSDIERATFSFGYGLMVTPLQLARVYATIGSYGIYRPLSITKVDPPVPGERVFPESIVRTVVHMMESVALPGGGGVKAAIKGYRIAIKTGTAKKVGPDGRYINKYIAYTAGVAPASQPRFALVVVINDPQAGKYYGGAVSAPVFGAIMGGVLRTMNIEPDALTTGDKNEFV

SMILES | E. coli K12 PBP1b Potency (E. coli K12 PBP1b) | E. coli K12 PBP1a/b Potency (E. coli K12 PBP1a/b) | E. coli PBP3 Potency (E. coli PBP3) | E. coli PBP2 Potency (E. coli PBP2) | MIC (S. aureus ATCC 29213) [µg/mL] | MIC [1] [µg/mL]
N=C(NC1CCNCC1)c1ccc(OCCO/N=C(\C(=O)N[C@H]2Cc3cccc(C(=O)O)c3OB2O)c2csc(N)n2)cc1 [Example 47, (R,Z)-3-(2-(2-aminothiazol-4-yl)-2-((2-(4-(N-(piperidin-4-yl)carbamimidoyl)phenoxy)ethoxy)imino)acetamido)-2-hydroxy-3,4-dihydro-2H-benzo[e][1,2]oxaborinine-8-carboxylic Acid] | B (B represents a potency between 64 and 1000 μg/mL inclusive) | B (B represents a potency between 64 and 1000 μg/mL inclusive) | B (B represents a potency between 64 and 1000 μg/mL inclusive) | B (B represents a potency between 64 and 1000 μg/mL inclusive) | 64 to 128 | < 64
CCO/N=C(\C(=O)N[C@H]1Cc2cccc(C(=O)O)c2OB1O)c1csc(N)n1 [Example 48, (R,Z)-3-(2-(2-aminothiazol-4-yl)-2-(ethoxyimino)acetamido)-2-hydroxy-3,4-dihydro-2H-benzo[e][1,2]oxaborinine-8-carboxylic Acid] | B (B represents a potency between 64 and 1000 μg/mL inclusive) | B (B represents a potency between 64 and 1000 μg/mL inclusive) | B (B represents a potency between 64 and 1000 μg/mL inclusive) | B (B represents a potency between 64 and 1000 μg/mL inclusive) | 64 to 128 | < 64
CC(O/N=C(\C(=O)N[C@H]1Cc2cccc(C(=O)O)c2OB1O)c1csc(N)n1)C(N)=O (stereo partly drawn) [Example 73, (3R)-3-((Z)-2-(((1-amino-1-oxopropan-2-yl)oxy)imino)-2-(2-aminothiazol-4-yl)acetamido)-2-hydroxy-3,4-dihydro-2H-benzo[e][1,2]oxaborinine-8-carboxylic Acid] | – | C (C represents a potency of <64 μg/mL) | C (C represents a potency of <64 μg/mL) | C (C represents a potency of <64 μg/mL) | > 128 | < 64
CC(C)(O/N=C(\C(=O)N[C@H]1Cc2cccc(C(=O)O)c2OB1O)c1csc(N)n1)C(=O)N[C@@H](CO)C(=O)O [Example 74, (R)-3-((Z)-2-(2-aminothiazol-4-yl)-2-(((1-(((S)-1-carboxy-2-hydroxyethyl)amino)-2-methyl-1-oxopropan-2-yl)oxy)imino)acetamido)-2-hydroxy-3,4-dihydro-2H-benzo[e][1,2]oxaborinine-8-carboxylic Acid] | – | C (C represents a potency of <64 μg/mL) | C (C represents a potency of <64 μg/mL) | C (C represents a potency of <64 μg/mL) | > 128 | < 64
CC(C)(O/N=C(\C(=O)N[C@H]1Cc2cccc(C(=O)O)c2OB1O)c1csc(N)n1)C(=O)NCC(=O)O [Example 75, (R,Z)-3-(2-(2-aminothiazol-4-yl)-2-(((1-((carboxymethyl)amino)-2-methyl-1-oxopropan-2-yl)oxy)imino)acetamido)-2-hydroxy-3,4-dihydro-2H-benzo[e][1,2]oxaborinine-8-carboxylic Acid] | – | C (C represents a potency of <64 μg/mL) | C (C represents a potency of <64 μg/mL) | C (C represents a potency of <64 μg/mL) | > 128 | < 64
Nc1nc(/C(=N/OCC(O)CO)C(=O)N[C@H]2Cc3cccc(C(=O)O)c3OB2O)cs1 (stereo partly drawn) [Example 76, (3R)-3-((Z)-2-(2-aminothiazol-4-yl)-2-((2,3-dihydroxypropoxy)imino)acetamido)-2-hydroxy-3,4-dihydro-2H-benzo[e][1,2]oxaborinine-8-carboxylic Acid] | B (B represents a potency between 64 and 1000 μg/mL inclusive) | – | – | – | 64 to 128 | < 64
CC(C)(O/N=C(\C(=O)N[C@H]1Cc2cc(O)cc(C(=O)O)c2OB1O)c1csc(N)n1)C(N)=O [Example 82, (R,Z)-3-(2-(((1-amino-2-methyl-1-oxopropan-2-yl)oxy)imino)-2-(2-aminothiazol-4-yl)acetamido)-2,6-dihydroxy-3,4-dihydro-2H-benzo[e][1,2]oxaborinine-8-carboxylic Acid] | B (B represents a potency between 64 and 1000 μg/mL inclusive) | – | – | – | > 128 | < 64
Nc1nc(/C(=C/c2cccnc2)C(=O)N[C@H]2Cc3cccc(C(=O)O)c3OB2O)cs1 [Example 87, (R,Z)-3-(2-(2-aminothiazol-4-yl)-3-(pyridin-3-yl)acrylamido)-2-hydroxy-3,4-dihydro-2H-benzo[e][1,2]oxaborinine-8-carboxylic Acid] | – | A (A represents a potency of >1000 μg/mL) | B (B represents a potency between 64 and 1000 μg/mL inclusive) | B (B represents a potency between 64 and 1000 μg/mL inclusive) | 64 to 128 | < 64
Nc1nc(/C(=C\C(=O)O)C(=O)N[C@H]2Cc3cccc(C(=O)O)c3OB2O)cs1 [Example 88, (R,E)-3-(2-(2-aminothiazol-4-yl)-3-carboxyacrylamido)-2-hydroxy-3,4-dihydro-2H-benzo[e][1,2]oxaborinine-8-carboxylic Acid] | – | A (A represents a potency of >1000 μg/mL) | B (B represents a potency between 64 and 1000 μg/mL inclusive) | B (B represents a potency between 64 and 1000 μg/mL inclusive) | > 128 | 64 to 128
Nc1nc(/C(=C/C(=O)O)C(=O)N[C@H]2Cc3cccc(C(=O)O)c3OB2O)cs1 [Example 89, (R,Z)-3-(2-(2-aminothiazol-4-yl)-3-carboxyacrylamido)-2-hydroxy-3,4-dihydro-2H-benzo[e][1,2]oxaborinine-8-carboxylic Acid] | – | A (A represents a potency of >1000 μg/mL) | C (C represents a potency of <64 μg/mL) | C (C represents a potency of <64 μg/mL) | > 128 | 64 to 128
Nc1nc(/C(=N/OCCF)C(=O)N[C@H]2Cc3cccc(C(=O)O)c3OB2O)cs1 [Example 113, (R,Z)-3-(2-(2-aminothiazol-4-yl)-2-((2-fluoroethoxy)imino)acetamido)-2-hydroxy-3,4-dihydro-2H-benzo[e][1,2]oxaborinine-8-carboxylic Acid] | B (B represents a potency between 64 and 1000 μg/mL inclusive) | – | – | – | 64 to 128 | < 64
